From US11180504B2 (ORCHID PHARMA LTD., priority 2016, dated 2021) come the findings set out here.

Values after ≈ are worked out from the molar mass of the structure shown.

For experiment [1], the system named is methicillin-sensitive Staphylococcus aureus. Kind of experiment: MIC by broth micro-dilution (CLSI), methicillin-sensitive S. aureus. The format is cell-based. As to conditions: Staphylococcus aureus, ATCC 29213 / MSSA, MSSA S. aureus ATCC29213; read-out: MIC. For orientation: Broth dilution looks for growth in wells or tubes with falling amounts of substance.

In experiment [2] the test system is carbapenemase producing K. pneumoniae. Kind of experiment: MIC by broth micro-dilution (CLSI), carbapenemase producing K. pneumoniae. The format is cell-based, Klebsiella pneumoniae. As to conditions: Klebsiella pneumoniae, ATCCBAA1705, KPC-2 K. pneumoniae ATCC BAA-1705; read-out: MIC.
Experiment [3] relates to carbapenem sensitive Escherichia coli. Kind of experiment: MIC by broth micro-dilution (CLSI), carbapenem sensitive E. coli. As to conditions: Escherichia coli, ATCC25922, ESBL −ve E. coli ATCC25922; read-out: MIC. Format: cell-based.
The test system of experiment [4] is carbapenem sensitive Pseudomonas aeruginosa. Kind of experiment: MIC by broth micro-dilution (CLSI), carbapenem sensitive P. aeruginosa. Format: cell-based. As to conditions: Pseudomonas aeruginosa, ATCC27853, Meropenem susceptible P. aeruginosa ATCC27853; read-out: MIC.

Regarding `C[C@@H](NC(=O)Cn1cnnn1)[C@H]1C(=O)N2C(C(=O)O)=C(S[C@@H]3CN[C@H](C(=O)N4CC[C@H](N)C4)C3)[C@H](C)[C@H]12` [Example 324], the MIC was 4 µg/mL (≈ 7.5 µM) in experiment [1], 4 µg/mL (≈ 7.5 µM) in experiment [2], 0.5 µg/mL (≈ 0.937 µM) in experiment [3] and 4 µg/mL (≈ 7.5 µM) in experiment [4].

On to `C[C@@H](NC(=O)Cn1cnnn1)[C@H]1C(=O)N2C(C(=O)O)=C(S[C@@H]3CN[C@H](C(=O)N4CC5CCCNC5C4)C3)[C@H](C)[C@H]12` (single isomer, unassigned) [Example 452], for which the MIC was 2 µg/mL (≈ 3.49 µM) in experiment [1], 1 µg/mL (≈ 1.74 µM) in experiment [2], 0.25 µg/mL (≈ 0.436 µM) in experiment [3] and 2 µg/mL (≈ 3.49 µM) in experiment [4].

`C[C@@H](NC(=O)Cn1cnnn1)[C@H]1C(=O)N2C(C(=O)O)=C(S[C@@H]3CN[C@H](C(=O)N4C[C@H](N)[C@@H](O)C4)C3)[C@H](C)[C@H]12` [Example 414, (4R,5S,6R)-6-((R)-1-(2-(1H-tetrazol-1-yl)acetamido)ethyl)-3-((3S,5S)-5-((3S,4S)-3-amino-4-hydroxypyrrolidine-1-carbonyl)pyrrolidin-3-ylthio)-4-methyl-7-oxo-1-azabicyclo[3.2.0]hept-2-ene-2-carboxylic acid]: the MIC in experiment [1] is 4 µg/mL (≈ 7.28 µM); in experiment [2], 2 µg/mL (≈ 3.64 µM); in experiment [3] it was 0.5 µg/mL (≈ 0.91 µM); in experiment [4], 4 µg/mL (≈ 7.28 µM).

In the case of `C[C@@H](NC(=O)Cn1nnc(N)n1)[C@H]1C(=O)N2C(C(=O)O)=C(S[C@@H]3CN[C@H](C(=O)N4CC[C@@H](N)C4)C3)[C@H](C)[C@H]12` [Example 316, (4R,5S,6R)-6-((R) - 1-(2-(5-amino-2H-tetrazol-2-yl)acetamido)ethyl)-3-((3S,5S)-5-((R)-3-aminopyrrolidine-1-carbonyl)pyrrolidin-3-ylthio)-4-methyl-7-oxo-1-azabicyclo[3.2.0]hept-2-ene-2-carboxylic acid], the MIC stood at 4 µg/mL (≈ 7.29 µM) in experiment [1], 16 µg/mL (≈ 29.2 µM) in experiment [2], 0.25 µg/mL (≈ 0.456 µM) in experiment [3] and 16 µg/mL (≈ 29.2 µM) in experiment [4].

With `C[C@@H](NC(=O)Cn1cnnn1)[C@H]1C(=O)N2C(C(=O)O)=C(S[C@@H]3CN[C@H](C(=O)N4CCn5c(cnc5N)C4)C3)[C@H](C)[C@H]12` [Example 481, (4R,5S,6R)-6-((R)-1-(2-(1H-tetrazol-1-yl)acetamido)ethyl)-3-((3S,5S)-5-(3-amino-5,6,7,8-tetrahydroimidazo[1,5-a]pyrazine-7-carbonyl)pyrrolidin-3-ylthio)-4-methyl-7-oxo-1-azabicyclo[3.2.0]hept-2-ene-2-carboxylic acid], the MIC in experiment [1] came out at 2 µg/mL (≈ 3.42 µM); in experiment [2] it was 2 µg/mL (≈ 3.42 µM); in experiment [3], 0.125 µg/mL (≈ 0.213 µM); in experiment [4], 2 µg/mL (≈ 3.42 µM).

Take `CCOC(=O)c1nnnn1CC(=O)N[C@H](C)[C@H]1C(=O)N2C(C(=O)O)=C(S[C@@H]3CN[C@H](C(=O)N(C)C)C3)[C@H](C)[C@H]12` [Example 338, (4R,5S,6R)-3-((3S,5S)-5-(dimethylcarbamoyl)pyrrolidin-3-ylthio)-6-((R) - 1-(2-(5-(ethoxycarbonyl) - 1H-tetrazol-1-yl)acetamido)ethyl)-4-methyl-7-oxo-1-azabicyclo[3.2.0]hept-2-ene-2-carboxylic acid]: the MIC in experiment [1] is 8 µg/mL (≈ 14.2 µM); in experiment [2], 32 µg/mL (≈ 56.7 µM); in experiment [3], 2 µg/mL (≈ 3.54 µM); in experiment [4], 128 µg/mL (≈ 227 µM).

In the case of `C[C@@H](NC(=O)Cn1cnnn1)[C@H]1C(=O)N2C(C(=O)O)=C(S[C@@H]3CN[C@H](C(=O)N4CC5C(N)C5C4)C3)[C@H](C)[C@H]12` (stereo partly drawn) [Example 333, (4R,5S,6R)-6-((R) - 1-(2-(1H-tetrazol-1-yl)acetamido)ethyl)-3-((3S,5S)-5-(6-amino-3-azabicyclo[3.1.0]hexane-3-carbonyl)pyrrolidin-3-ylthin)-4-methyl-7-oxo-1-azabicyclo[3.2.0]hept-2-ene-2-carboxylic acid], the MIC in experiment [1] was 8 µg/mL (≈ 14.7 µM); in experiment [2], 4 µg/mL (≈ 7.33 µM); in experiment [3], 0.5 µg/mL (≈ 0.916 µM); in experiment [4], 4 µg/mL (≈ 7.33 µM).

For orientation: MIC means the smallest concentration in the dilution series that meets the test's criterion for growth inhibition.
